{"source": "patent US20250114430A1", "about": "“MODIFIED PEPTIDOMIMETICS AND METHODS OF USE” (The University of North Carolina at Chapel Hill, priority 2021, published 2025)", "key": {"[1]": {"molecular_target": "T1, Orai1/store operated Ca^2+ influx (Homo sapiens, UniProt Q96D31)", "T1 construct": "Endogenous Orai1/store operated Ca^2+ influx have been extensively studied in HEK293T cells; endogenous in cells; host or cells: HEK293T", "T1 sequence (Q96D31 whole entry)": "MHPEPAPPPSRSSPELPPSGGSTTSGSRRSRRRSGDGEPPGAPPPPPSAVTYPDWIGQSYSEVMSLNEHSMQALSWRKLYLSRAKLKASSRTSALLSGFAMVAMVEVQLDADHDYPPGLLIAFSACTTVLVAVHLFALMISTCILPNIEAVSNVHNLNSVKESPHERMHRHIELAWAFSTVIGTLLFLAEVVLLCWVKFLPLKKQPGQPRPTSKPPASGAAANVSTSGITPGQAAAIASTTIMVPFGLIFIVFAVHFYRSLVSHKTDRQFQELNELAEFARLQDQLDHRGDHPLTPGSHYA", "assay": "Store operated Ca^2+ influx in HEK293T cells (Example 2)", "assay_type": "cell-based", "conditions": "a6 and ELD607 combined", "text": "(§1) Endogenous Orai1/store operated Ca^2+ influx have been extensively studied in HEK293T cells, so this cell type was used to understand ELD607-Orai1 interactions. […] Thapsigargin is a SERCA pump inhibitor that prevents uptake of cytosolic Ca^2+ into the endoplasmic reticulum. Thapsigargin is commonly used to stimulate Orai1/store operated Ca^2+ influx. […] Dynamic light scattering (DLS) was used to evaluate binding of ELD607 to peptides of Orai1 extracellular loops. […] Thus, it was concluded that ELD607 interacts with Orai1."}, "[2]": {"molecular_target": "T2, Orai1 extracellular peptide 1 (OP1) (Homo sapiens, UniProt Q96D31)", "T2 construct": "corresponding to amino acids 106-119 ([…]", "assay": "Dynamic light scattering binding to Orai1 extracellular loop peptide OP1", "conditions": "DLS, Orai1 amino acids 106-119", "text": "as §1"}, "[3]": {"test_system": "SARS-CoV-2 S1 pseudovirus", "assay_type": "cell-based"}, "[4]": {"test_system": "immune cells from tracheal aspirates of ARDS/bacterial pneumonia patients", "assay": "Thapsigargin-induced cytosolic Ca^2+ in immune cells from ARDS/bacterial pneumonia patients", "assay_type": "cell-based, human", "conditions": "Fluo-4, 1 h exposure", "procedure": "We next obtained tracheal aspirates from intubated ARDS/bacterial pneumonia patients. We immediately isolated immune cells from these samples and simultaneously loaded them with the Ca^2+ dye Fluo-4 and exposed them to vehicle, ELD607 or scrambled peptide for 1 h."}, "P. aeruginosa": {"test_system": "P. aeruginosa", "assay": "P. aeruginosa infection in WT mice, ELD607 versus comparators", "assay_type": "in vivo", "conditions": "WT mice infected with P. aeruginosa", "text": "We then infected WT mice with P. aeruginosa and treated with ELD607, the Orai1 small molecule antagonist […], dexamethasone or scrambled ELD607."}, "[5]": {"test_system": "E. coli lipopolysaccharide (LPS)", "assay": "E. coli LPS acute respiratory distress syndrome (ARDS) model", "assay_type": "in vivo, mice", "conditions": "3 mg/kg LPS", "procedure": "FIG. 34 panels B-D show lung injury score (FIG. 34 panel B), % weight loss (FIG. 34 panel C), and % BAL neutrophils (FIG. 34 […]) in relation to FIG. 34 panel A. Lung injury scoring system taken from Aeffner et al. Mouse Models of Acute Respiratory Distress Syndrome: A Review of Analytical Approaches, Pathologic Features, and Common Measurements. 2015 Tox Pathol.\nELD607 reduces inflammation in an acute respiratory distress syndrome (ARDS) model. Mice were intratracheally to 3 mg/kg E. coli lipopolysaccharide (LPS). 0.5 mg/kg ELD607 was instilled intranasally 1 or 6 h later. As a control, 3 mg/kg dexamethasone was given intranasally."}, "in vitro": {"assay": "in vitro", "assay_type": "in vitro ADME", "conditions": "human, serum", "procedure": "We injected mice intraperitoneally with E. coli LPS, followed by 0.5 mg/kg ELD607 injected intravenously 1 h later."}, "αSMA": {"test_system": "αSMA", "assay": "αSMA expression in fibroblasts after three days of TGFβ (confocal microscopy)", "assay_type": "cell-based", "procedure": "After three days of TGFβ induced αSMA deposition, ELD607 was then added for 24 h at 10 μM and αSMA expression was assessed by confocal microscopy. Data are shown as mean+/−SEM and data were analyzed by ANOVA.\nFIG. 39A-39B show ELD607 reduces αSMA deposition. After three days of TGFβ induced αSMA deposition, ELD607 or other compounds (pirfenidone, nintedanib, zigovractin, YM-58483) were then added as indicated for 24 h at 10 μM. […] Data are shown as mean+/−SEM and data were analyzed by ANOVA.\nIn vitro Methods: Fibroblasts were exposed to 10 nM TFGβ for 3-7 days as indicated. Then, ELD607 was added overnight. Fibroblasts were then fixed in paraformaldehyde, stained with primary a smooth muscle actin (αSMA) antibody, and imaged by confocal microscopy. Myofibroblasts were exposed to ELD607 without any TGFβ pre-treatment. In some cases, Western blotting was used to probe for αSMA.\nFibroblasts were exposed to TGFβ for three days and then exposed to vehicle or the indicated compounds. Cells were then fixed, stained for αSMA, and expression measured by confocal microscopy."}, "[6]": {"test_system": "bleomycin-induced lung injury", "assay": "Bleomycin-induced lung fibrosis in mice", "assay_type": "in vivo", "set-up": "dose or concentration left out as unconfirmed", "procedure": "Mice were exposed to 4 doses of bleomycin as described from days 1-37, then fibrosis was allowed to form from days 38-60. The mice were then dosed daily with inhaled […] (1 mg/kg) from days 61-82. Mice were sacrificed on Day 83 and histology was performed.\nELD607 reverses fibrosis in mice. Bleomycin-exposed mice are a well-established model to study IPF. Based on ATS guidelines, mice were dosed with […] bleomycin per dose 4 times over 37 days to induce fibrosis. From day 61, mice were then treated intranasally with […] ELD607 daily for 20 days (FIG. 40 panel A). Lungs were then collected and prepped for H&E staining and fibrosis was measured using the Ashcroft scaling system."}, "Orai1 [7]": {"molecular_target": "T3, Orai1 (Homo sapiens, UniProt Q96D31)", "T3 sequence (Q96D31 whole entry)": "as above", "assay": "TIRF microscopy of Orai1 in the plasma membrane", "assay_type": "cell-based", "set-up": "Endogenous Orai1/store operated Ca^2+ influx have been extensively studied in HEK293T cells; endogenous in cells; host or cells: HEK293T", "conditions": "Orai1-YFP, 3 h", "text": "To determine whether ELD607 internalized Orai1, total internal reflection fluorescence (TIRF) microscopy was used to measure Orai1 in the plasma membrane. […] However, ELD607 reduced Orai1 plasma membrane expression by ˜50% (FIG. 26, panels A-B). […] We expressed NFAT-GFP in HEK293T cells and evaluated the ability of ELD607 to attenuate NFAT relocation to the nucleus after stimulation of SOCE by confocal microscopy. ELD607 reduced the percentage of NFAT in the nucleus by greater than 50% (FIG. 26, panels C-D)."}, "Orai1 [8]": {"molecular_target": "T3, Orai1", "assay": "Orai1 immunocytochemistry on immune cells of ARDS/bacterial pneumonia patients", "assay_type": "cell-based", "set-up": "immune cells of ARDS/bacterial pneumonia patients; endogenous in cells; host or cells: immune cells from tracheal aspirates of ARDS/bacterial pneumonia patients", "conditions": "paired patient samples", "text": "We then performed Orai1 immunocytochemistry on paired samples of immune cells of ARDS/bacterial pneumonia patients. Cells derived from each patient were exposed to either vehicle, ELD607, or scrambled ELD607 (FIG. 27, panels D and E)."}}, "note": "No end group written: not given here."}
{"sequence": "VHDIVNMLIRG [ELD607, VHDIVNMLIRG]", "values": [{"measurement": "additivity of inhibitory effects of a6 and ELD607 on thapsigargin-induced elevations in cytosolic Ca^2+", "setting": "[1]", "result": "not additive"}, {"measurement": "interaction with OP1 (Z-average increase)", "setting": "[2]", "result": "significant interactions"}, {"measurement": "pseudovirus infection (% DsRed-positive cells)", "setting": "[3]", "result": "significantly reduced infection"}, {"measurement": "thapsigargin elevation of cytosolic Ca^2+", "setting": "[4]", "result": "not after exposure to ELD607"}, {"measurement": "bacterial infections", "setting": "P. aeruginosa", "result": "significantly reduced"}, {"measurement": "lung macrophage levels", "setting": "P. aeruginosa", "result": "increased lung macrophage levels"}, {"measurement": "neutrophilia", "setting": "P. aeruginosa", "result": "significantly reduced"}, {"measurement": "weight loss", "setting": "P. aeruginosa", "result": "significantly reduced"}, {"measurement": "BAL neutrophilia", "setting": "[5]; 0.5 mg/kg ELD607 intranasally", "result": "attenuated BAL neutrophilia"}, {"measurement": "weight loss", "setting": "[5]; 0.5 mg/kg ELD607 intranasally", "result": "reduced weight loss"}, {"measurement": "lung damage (lung injury score)", "setting": "[5]; 0.5 mg/kg ELD607 intranasally 1 or 6 h later", "result": "significantly reduced lung damage caused by LPS"}, {"measurement": "remaining at 4 h", "setting": "in vitro", "result": 100, "unit": "%"}, {"measurement": "reduction in αSMA versus pirfenidone, nintedanib, zigrocractin and YM-58483", "setting": "αSMA; 10 μM, 24 h", "result": "significantly greater reduction in αSMA than all other compounds tested"}, {"measurement": "αSMA expression, dose dependence", "setting": "αSMA; TGFβ three days, then ELD607 24 h", "result": "dose-dependently reduced αSMA expression"}, {"measurement": "lung damage (Ashcroft)", "setting": "[6]; 25 intranasally daily for 20 days from day 61", "result": "significantly less lung damage than vehicle controls"}, {"measurement": "acute and chronic bleomycin-induced lung injury", "setting": "[6]; lower dose of 19, different time course", "result": "reduces acute and chronic bleomycin-induced lung injury"}, {"measurement": "reduction of Orai1 plasma membrane expression", "setting": "Orai1 [7]", "result": "~50", "unit": "%"}, {"measurement": "Orai1 levels", "setting": "Orai1 [8]", "result": "significant reduction in Orai1 levels"}]}
